Measurements taken from the NIST ThermoML archive (doi:10.1021/je301004f).
± gives the expanded uncertainty stated by the source.

Key:
[1] = for mass density / viscosity: 101.33 kPa, Liquid; for mass density: Vibrating tube method; for viscosity: Falling or rolling sphere viscometry
[2] = refractive index (Na D-line) (dimensionless); details: 101.33 kPa, Liquid, Standard Abbe refractometry

`CCCCCCCC/C=C\CCCCCCCCn1cc[n+](C)c1.O=S(=O)([N-]S(=O)(=O)C(F)(F)F)C(F)(F)F` gave a mass density ([1]; 273.15 K) of 1210.9 ± 2.7 kg/m3, a viscosity ([1]; 278.15 K) of 1005.3 ± 100 mPa·s and a viscosity ([1]; 283.15 K) of 698.6 ± 62 mPa·s. It also gave a mass density ([1]; 283.15 K) of 1202.62 ± 2.7 kg/m3, a viscosity ([1]; 288.15 K) of 492.9 ± 38 mPa·s and a viscosity ([1]; 293.15 K) of 355.7 ± 24 mPa·s. The mass density ([1]; 293.15 K) was 1194.49 ± 2.6 kg/m3, the viscosity ([1]; 298.15 K) was 263.5 ± 15 mPa·s and the viscosity ([1]; 303.15 K) was 222.85 ± 11 mPa·s. For the same molecule, the mass density ([1]; 303.15 K) was 1186.39 ± 2.6 kg/m3, the viscosity ([1]; 313.15 K) was 133.94 ± 5 mPa·s and the mass density ([1]; 313.15 K) was 1178.38 ± 2.6 kg/m3. For the same molecule, the viscosity ([1]; 323.15 K) was 85.97 ± 2.4 mPa·s, the mass density ([1]; 323.15 K) was 1170.38 ± 2.6 kg/m3 and the viscosity ([1]; 333.15 K) was 58.09 ± 1.3 mPa·s. The mass density ([1]; 333.15 K) was 1162.47 ± 2.6 kg/m3, the viscosity ([1]; 343.15 K) was 41.09 ± 0.96 mPa·s and the mass density ([1]; 343.15 K) was 1154.57 ± 2.5 kg/m3. It also gave a Normal melting temperature ([1]; Crystal, DTA) of -20.8 ± 0.5 °C, a refractive index ([2]; 283.2 K) of 1.4576 ± 0.0011 and a refractive index ([2]; 293.2 K) of 1.4545 ± 0.0011. For the same molecule, the refractive index ([2]; 298.2 K) was 1.4528 ± 0.0011, the refractive index ([2]; 303.2 K) was 1.4511 ± 0.0011 and the refractive index ([2]; 313.2 K) was 1.4479 ± 0.0011. It also gave a refractive index ([2]; 323.2 K) of 1.4446 ± 0.0011, a refractive index ([2]; 333.2 K) of 1.441 ± 0.0011 and a refractive index ([2]; 343.2 K) of 1.4379 ± 0.0011.
